How the values were obtained:
Format in all cases: cell-based, human
[1] = tested on: HaCaT cells; experiment: Immunohistochemical staining of HaCaT cells treated with 3,5-DCQA (Example 8); conditions: 1 μM 3,5-DCQA
Description: (§1) HaCaT cells (human keratinocytes) were cultured in Dulbecco's modified Eagle's medium (DMEM) containing 10% fetal bovine serum (FBS) and 1% antibiotic-antimycotic solution at 37° C. in a 5% CO2 incubator. The cell culture medium was replaced with fresh DMEM every 48-72 hours. HaCaT cells within 5-17 passages were plated at a density of 1×10^4 cells per well in an 8-well chamber slide, or at a density of 1×10^6 cells per well in a 6-well culture plate in DMEM containing […] and 1% antibiotic-antimycotic solution. The cells were cultured for 24-48 hours in a 5% CO2 incubator at 37° C. Then, the medium was replaced with DMEM containing 1% fetal bovine serum. Thereafter, the cells were treated for 24 hours with DNCB (5 μM, Sigma-Aldrich, Louis, Mo., USA) or SDS (30 μM, Sigma-Aldrich) along with the AG extract (50 μg) and the PPARδ antagonist GSK0660 (Sigma-Aldrich). In addition, the cells were treated with 1 μM 3,5-dicaffeoylquinic acid (3,5-DCQA). The HaCaT cells were donated by Dr. Sang-Wook Son. All the reagents for cell culture were purchased from Welgene Inc. (Daegu, Korea). The concentrations of all the reagents were final concentrations.
In order to measure the protein expression of keratin, involucrin, β-defensin and TNFα in HaCaT cells treated with 3,5-dicaffeoylquinic acid, immunohistochemical staining was performed after treating with the condition of Example 2.
The protein extracts were electrophoresed on 10% polyacrylamide gel and blotted to a nitrocellulose membrane. The nitrocellulose membrane was bound with primary and secondary antibodies sequentially, and then chemiluminescence was exposed to an X-ray film. The density for bands on the X-ray film was analyzed with the Image J program. The HaCaT cells fixed on a slide chamber were immunohistochemically stained with antibodies for keratin, involucrin, defensin and TNFα. Images were taken at 200× magnification, and the densities for the images were analyzed with the Image J program. The results were expressed as mean±SEM. The values were statistically analyzed by unpaired t-test. All the experiments were repeated three times.

[2] = tested on: HaCaT cells; experiment: Western blot of protein expression in HaCaT cells treated with 3,5-DCQA (Example 7); conditions: 1 μM 3,5-DCQA
Description: as §1
In order to measure the protein expression of TRPV4, PPARδ, AMPK and SPTLC2 in HaCaT cells treated with 3,5-dicaffeoylquinic acid, western blot was performed after treating with the condition of Example 2.

[3] = tested on: HaCaT cells; experiment: Immunocytochemistry of keratin, involucrin, β-defensin 1 and TNFα in HaCaT cells treated with DNCB or SDS with AG extract (Example 4); conditions: AG extract plus GSK0660
Description: as §1
In order to evaluate the expression of β-defensin 1, a representative β-defensin, together with skin barrier constituents such as keratin and involucrin and the inflammatory cytokine TNFα, immunocytochemistry (ICC) was conducted after treating with the condition of Example 2.
Cells in a chamber slide were fixed with ice-cold methanol for 15 minutes. The fixed cells were treated with a 0.3% hydrogen peroxide (H2O2) solution containing 0.3% normal horse serum for 5 minutes to remove peroxidase activity in the cells. After washing with PBS for 5 minutes, the cells were incubated with diluted normal blocking serum for 20 minutes, followed by treatment with diluted primary antibodies for 1 hour. The primary antibodies for involucrin and TNFα were purchased from Novus (Littleton, Colo. 80120, USA). The primary antibody for β-defensin 1 was purchased from Santa Cruz Biotechnology, Inc. (Dallas, Tex., USA), and the primary antibody for pan-keratin was purchased from Abcam (Cambridge, UK). After washing with PBS, the cells were treated with secondary antibodies for 30 minutes. After washing with PBS, the cells were treated with a premixed Vectastain ABC reagent solution for 30 minutes. […]
The protein extracts were electrophoresed on 10% polyacrylamide gel and blotted to a nitrocellulose membrane. […] The density for bands on the X-ray film was analyzed with the Image J program. […] Images were taken at 200× magnification, and the densities for the images were analyzed with the Image J program. The results were expressed as mean±SEM. The values were statistically analyzed by unpaired t-test. […]

[4] = tested on: HaCaT cells; experiment: Western blot for TRPV4, PPARδ and AMPK in HaCaT cells treated with antagonists for TRPV4, PPARδ or AMPK (Example 6); conditions: HaCaT treated with antagonist
Description: (§2) Western blot was conducted for TRPV4, AMPK and PPARδ in HaCaT cells treated with antagonists for TRPV4, PPARδ and AMPK. The HaCaT cells fixed on a slide chamber were immunohistochemically stained with antibodies for keratin, involucrin, defensin and TNFα. Images were taken at 200× magnification, and the densities for the images were analyzed with the Image J program. The protein extracts were electrophoresed on 10% polyacrylamide gel and blotted to a nitrocellulose membrane. The nitrocellulose membrane was bound with primary and secondary antibodies sequentially, and then chemiluminescence was exposed to an X-ray film. The density for bands on the X-ray film was analyzed with the Image J program. The results were expressed as mean±SEM. The values were statistically analyzed by unpaired t-test. All the experiments were repeated three times.
To determine the priority of major regulators which are TRPV4, PPARδ and AMPK, the protein expression level of TRPV4, PPARδ and AMPK in HaCaT cells treated with antagonists for TRPV4, PPARδ or AMPK was measured by western blot.

[5] = tested on: HaCaT cells; experiment: Western blot of protein expression in HaCaT cells treated with DNCB or SDS with AG extract (Example 3); conditions: GSK0660 along with the AG extract
Description: as §1
For evaluation of the protein expression levels of PPARδ, AMPK and SPTLC2 in the HaCaT cells treated with SDS or DNCB together with AG, western blot was conducted after treating with the conditions of Example 2.
The concentration of the proteins in the sample was estimated by the Bradford method. 10 μg of the extracted proteins were loaded onto 10% sodium dodecyl sulfate (SDS)-polyacrylamide gel, and protein blotting on nitrocellulose membrane was performed for 90 minutes. The membrane was blocked overnight with 5% skim milk and washed 3 times with TBS-T for 10 minutes. Primary antibodies were allowed to bind to the membrane at room temperature for 2 hours. […] Images were processed manually with Kodak GBX developer and fixer reagents (Carestream Health, Inc., Rochester, N.Y., USA) and were analyzed using the Image J program. β-Actin was used as a internal control group for normalization of the loaded proteins.

[6] = tested on: HaCaT cells; experiment: Immunohistochemical staining of HaCaT cells treated with antagonists for TRPV4 and AMPK (Example 5); conditions: HaCaT treated with antagonist; compared to the control group
Description: To investigate the effect of TRPV4 and AMPK on the expression of biomarkers related to skin barrier constituents, defense and inflammation, the protein expression for keratin, involucrin, β-defensin and TNFα was evaluated by immunohistochemical staining of HaCaT cells treated with antagonists for TRPV4 and AMPK.
as §2

`O=C(/C=C/c1ccc(O)c(O)c1)O[C@@H]1C[C@](O)(C(=O)O)C[C@@H](OC(=O)/C=C/c2ccc(O)c(O)c2)[C@H]1O` [3,5-DCQA, 3,5-dicaffeoylquinic acid] was tested. Which “expression of TNFα” value [1] did it give?
Its value is “decreased”.

What about the “protein expression of involucrin” value [1] of the same compound?
The value was “increased”.

And the “protein expression of keratin” value [1]?
Its value is “increased”.

What about the “protein expression of β-defensin 1” value [1] of the same compound?
Its value is “increased”.

What about the “protein expression of AMPK” value [2] of the same compound?
Its value is “increased”.

And the “protein expression of PPARδ” value [2]?
The value was “increased”.

And the “protein expression of SPTLC2” value [2]?
The value was “increased”.

What does the source list for `COC(=O)c1sccc1S(=O)(=O)Nc1ccc(Nc2ccccc2)cc1OC` [GSK0660]?
AG extract-increased involucrin protein expression [3]: offset; AG extract-increased keratin protein expression [3]: offset; AG extract-increased β-defensin 1 protein expression [3]: offset; effect of the AG extract on TNFα expression [3]: offset; protein expression level for PPARδ [4]: lowered; protein expression level for TRPV4 [4]: did not change; protein expression level for p-AMPK [4]: lowered; AG extract-induced increase in the expression of P-AMPK [5]: reduced; AG extract-induced increase in the expression of PPARδ [5]: reduced; AG extract-induced increase in the expression of SPTLC2 [5]: reduced

Which results are given for `c1cc(-c2cnn3cc(-c4ccc(OCCN5CCCCC5)cc4)cnc23)ccn1` [compound C]?
protein expression level for PPARδ [4]: did not affect; protein expression level for TRPV4 [4]: did not affect; protein expression level for p-AMPK [4]: decreased; protein expression of TNFα [6]: increased; protein expression of involucrin [6]: decreased significantly; protein expression of keratin [6]: decreased significantly; protein expression of β-defensin 1 [6]: decreased significantly

— patent US20210393722A1, “COMPOSITION FOR IMPROVING SKIN BARRIER DAMAGE AND/OR ALLEVIATING SKIN INFLAMMATION, CONTAINING 3,5-DICAFFEOYLQUINIC ACID AS ACTIVE INGREDIENT” (KOREA UNIVERSITY RESEARCH AND BUSINESS FOUNDATION, priority 2018, published 2021)
